From patent publication US5672715A, “Herbicidal substituted 3-aryl-pyrazoles” (Monsanto Company, priority 1995, dated 1997)

Experiments:
Format in all cases: in vivo
[1] = test system: Barnyardgrass; experiment: pre-emergence herbicide test; conditions: Echinochloa crus-galli, pre-emergence, 0.25 lb/A; read-out: % plant inhibition
Procedure, shortened: (§1)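 Known amounts of active ingredient went into the cover soil over seeds sown in pans, either before or after the layer was spread. An initial 1/4 inch overhead irrigation was given in some cases; otherwise pans were subirrigated. Rating was % inhibition at ~14 days.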

[2] = test system: Bedstraw Catchweed; experiment: pre-emergence herbicide test; conditions: Galium aparine, pre-emergence, 0.25 lb/A; read-out: % plant inhibition
Procedure, shortened: as §1

[3] = test system: Birdseye Speedwell; experiment: pre-emergence herbicide test; conditions: pre-emergence, 0.25 lb/A; read-out: % plant inhibition
Procedure, shortened: as §1

[4] = test system: Blackgrass; experiment: pre-emergence herbicide test; conditions: Alopecurus myosuroides, pre-emergence, 0.25 lb/A; read-out: % plant inhibition
Procedure, shortened: as §1

[5] = test system: Cocklebur; experiment: pre-emergence herbicide test; conditions: Xanthium strumarium, pre-emergence, 0.25 lb/A; read-out: % plant inhibition
Procedure, shortened: as §1

[6] = test system: Common Chickweed; experiment: pre-emergence herbicide test; conditions: pre-emergence, 0.25 lb/A; read-out: % plant inhibition
Procedure, shortened: as §1

[7] = test system: Corn; experiment: pre-emergence herbicide test; conditions: Zea mays, pre-emergence, 0.25 lb/A; read-out: % plant inhibition
Procedure, shortened: as §1

[8] = test system: Downy Brome; experiment: pre-emergence herbicide test; conditions: Bromus tectorum, pre-emergence, 0.25 lb/A; read-out: % plant inhibition
Procedure, shortened: as §1

[9] = test system: Giant Foxtail; experiment: pre-emergence herbicide test; conditions: Setaria faberi, pre-emergence, 0.25 lb/A; read-out: % plant inhibition
Procedure, shortened: as §1

[10] = test system: Green Foxtail; experiment: pre-emergence herbicide test; conditions: Setaria viridis, pre-emergence; 0.25 lb/A; read-out: % plant inhibition
Procedure, shortened: as §1

[11] = test system: Morning Glory; experiment: pre-emergence herbicide test; conditions: Ipomoea, pre-emergence, 0.25 lb/A; read-out: % plant inhibition
Procedure, shortened: as §1

[12] = test system: Rape; experiment: pre-emergence herbicide test; conditions: pre-emergence, 0.25 lb/A; read-out: % plant inhibition
Procedure, shortened: as §1

[13] = test system: Seedling Johnsongrass; experiment: pre-emergence herbicide test; conditions: Sorghum halepense, pre-emergence, 0.25 lb/A; read-out: % plant inhibition
Procedure, shortened: as §1

[14] = test system: Soybean; experiment: pre-emergence herbicide test; conditions: Glycine max, pre-emergence, 0.25 lb/A; read-out: % plant inhibition
Procedure, shortened: as §1

[15] = test system: Velvetleaf; experiment: pre-emergence herbicide test; conditions: Abutilon theophrasti, pre-emergence, 0.25 lb/A; read-out: % plant inhibition
Procedure, shortened: as §1

[16] = test system: Wheat; experiment: pre-emergence herbicide test; conditions: Triticum aestivum, pre-emergence, 0.25 lb/A; read-out: % plant inhibition
Procedure, shortened: as §1

[17] = test system: Wild Oats; experiment: pre-emergence herbicide test; conditions: Avena fatua, pre-emergence, 0.25 lb/A; read-out: % plant inhibition
Procedure, shortened: as §1

[18] = test system: Barnyardgrass; experiment: post-emergence herbicide test; conditions: Echinochloa crus-galli, post-emergence, 0.25 lb/A; read-out: % plant inhibition
Procedure, shortened: (§2)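 Greenhouse plants grown from seeds in topsoil were treated two to three weeks after sowing with a spray solution or suspension of test chemical with about 0.4% by volume emulsifier, applied at 1870 L/Ha and 170.3 kPa. Percent inhibition per species was the endpoint.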

[19] = test system: Bedstraw Catchweed; experiment: post-emergence herbicide test; conditions: Galium aparine, post-emergence, 0.25 lb/A; read-out: % plant inhibition
Procedure, shortened: as §2

[20] = test system: Birdseye Speedwell; experiment: post-emergence herbicide test; conditions: post-emergence, 0.25 lb/A; read-out: % plant inhibition
Procedure, shortened: as §2

[21] = test system: Blackgrass; experiment: post-emergence herbicide test; conditions: Alopecurus myosuroides, post-emergence, 0.25 lb/A; read-out: % plant inhibition
Procedure, shortened: as §2

[22] = test system: Cocklebur; experiment: post-emergence herbicide test; conditions: Xanthium strumarium, post-emergence, 0.25 lb/A; read-out: % plant inhibition
Procedure, shortened: as §2

[23] = test system: Common Chickweed; experiment: post-emergence herbicide test; conditions: post-emergence, 0.25 lb/A; read-out: % plant inhibition
Procedure, shortened: as §2

[24] = test system: Corn; experiment: post-emergence herbicide test; conditions: Zea mays, post-emergence, 0.25 lb/A; read-out: % plant inhibition
Procedure, shortened: as §2

[25] = test system: Downy Brome; experiment: post-emergence herbicide test; conditions: Bromus tectorum, post-emergence, 0.25 lb/A; read-out: % plant inhibition
Procedure, shortened: as §2

[26] = test system: Giant Foxtail; experiment: post-emergence herbicide test; conditions: Setaria faberi, post-emergence, 0.25 lb/A; read-out: % plant inhibition
Procedure, shortened: as §2

[27] = test system: Green Foxtail; experiment: post-emergence herbicide test; conditions: Setaria viridis, post-emergence, 0.25 lb/A; read-out: % plant inhibition
Procedure, shortened: as §2

[28] = test system: Morning Glory; experiment: post-emergence herbicide test; conditions: Ipomoea, post-emergence, 0.25 lb/A; read-out: % plant inhibition
Procedure, shortened: as §2

[29] = test system: Rape; experiment: post-emergence herbicide test; conditions: post-emergence, 0.25 lb/A; read-out: % plant inhibition
Procedure, shortened: as §2

[30] = test system: Seedling Johnsongrass; experiment: post-emergence herbicide test; conditions: Sorghum halepense, post-emergence, 0.25 lb/A; read-out: % plant inhibition
Procedure, shortened: as §2

[31] = test system: Soybean; experiment: post-emergence herbicide test; conditions: Glycine max, post-emergence, 0.25 lb/A; read-out: % plant inhibition
Procedure, shortened: as §2

[32] = test system: Velvetleaf; experiment: post-emergence herbicide test; conditions: Abutilon theophrasti, post-emergence, 0.25 lb/A; read-out: % plant inhibition
Procedure, shortened: as §2

[33] = test system: Wheat; experiment: post-emergence herbicide test; conditions: Triticum aestivum, post-emergence, 0.25 lb/A; read-out: % plant inhibition
Procedure, shortened: as §2

[34] = test system: Wild Oats; experiment: post-emergence herbicide test; conditions: Avena fatua, post-emergence, 0.25 lb/A; read-out: % plant inhibition
Procedure, shortened: as §2

Compound	inhibition at 280.212 g/ha [1]	inhibition at 280.212 g/ha [2]	inhibition at 280.212 g/ha [3]	inhibition at 280.212 g/ha [4]	inhibition at 280.212 g/ha [5]	inhibition at 280.212 g/ha [6]	inhibition at 280.212 g/ha [7]	inhibition at 280.212 g/ha [8]	inhibition at 280.212 g/ha [9]	inhibition at 280.212 g/ha [10]	inhibition at 280.212 g/ha [11]	inhibition at 280.212 g/ha [12]	inhibition at 280.212 g/ha [13]	inhibition at 280.212 g/ha [14]	inhibition at 280.212 g/ha [15]	inhibition at 280.212 g/ha [16]	inhibition at 280.212 g/ha [17]	inhibition at 280.212 g/ha [18]	inhibition at 280.212 g/ha [19]	inhibition at 280.212 g/ha [20]	also measured
Cc1c(-c2cc(C(=O)OCC(=O)OC(C)C)c(Cl)cc2F)nn(C)c1C(F)(F)F [Compound 23]	40%	45%	100%	15%	10%	100%	0%	15%	65%	85%	25%	75%	30%	5%	65%	0%	10%	60%	50%	75%	inhibition at 280.212 g/ha [21]: 15%; inhibition at 280.212 g/ha [22]: 90%; inhibition at 280.212 g/ha [23]: 75%; inhibition at 280.212 g/ha [24]: 7%; inhibition at 280.212 g/ha [25]: 25%; inhibition at 280.212 g/ha [26]: 20%; inhibition at 280.212 g/ha [27]: 15%; inhibition at 280.212 g/ha [28]: 65%; inhibition at 280.212 g/ha [29]: 10%; inhibition at 280.212 g/ha [30]: 65%; inhibition at 280.212 g/ha [31]: 30%; inhibition at 280.212 g/ha [32]: 98%; inhibition at 280.212 g/ha [33]: 11%; inhibition at 280.212 g/ha [34]: 20%
Cc1c(-c2cc(CSC(C)C)c(Cl)cc2F)nn(C)c1C(F)(F)F [Compound 29]	80%	70%	70%	40%	15%	90%	30%	10%	95%	95%	65%	15%	100%	20%	70%	0%	15%	90%	100%	100%	inhibition at 280.212 g/ha [21]: 70%; inhibition at 280.212 g/ha [22]: 90%; inhibition at 280.212 g/ha [23]: 95%; inhibition at 280.212 g/ha [24]: 20%; inhibition at 280.212 g/ha [25]: 70%; inhibition at 280.212 g/ha [26]: 65%; inhibition at 280.212 g/ha [27]: 95%; inhibition at 280.212 g/ha [28]: 90%; inhibition at 280.212 g/ha [29]: 100%; inhibition at 280.212 g/ha [30]: 90%; inhibition at 280.212 g/ha [31]: 90%; inhibition at 280.212 g/ha [32]: 99%; inhibition at 280.212 g/ha [33]: 12%; inhibition at 280.212 g/ha [34]: 75%
CCOC(=O)COC(=O)c1cc(-c2nn(C)c(C(F)(F)F)c2C)c(F)cc1Cl [Compound 17]	0%	100%	100%	20%	10%	100%	0%	30%	40%	35%	50%	90%	5%	5%	50%	0%	15%	70%	95%	98%	inhibition at 280.212 g/ha [21]: 15%; inhibition at 280.212 g/ha [22]: 95%; inhibition at 280.212 g/ha [23]: 90%; inhibition at 280.212 g/ha [24]: 10%; inhibition at 280.212 g/ha [25]: 30%; inhibition at 280.212 g/ha [26]: 45%; inhibition at 280.212 g/ha [27]: 20%; inhibition at 280.212 g/ha [28]: 90%; inhibition at 280.212 g/ha [29]: 20%; inhibition at 280.212 g/ha [30]: 65%; inhibition at 280.212 g/ha [31]: 30%; inhibition at 280.212 g/ha [32]: 99%; inhibition at 280.212 g/ha [33]: 15%; inhibition at 280.212 g/ha [34]: 20%
